Values of other authors as cited in patent US10639299B2, “Calcium sensing receptors, ligands, compositions, and methods of use” (Georgia State University Research Foundation, Inc., priority 2016, dated 2020).
pEC50: −log10 of the molar value.

Legend:
CaSR [1] = target: T1, CaSR (Bos taurus, UniProt P35384); conditions: X. laevis oocytes; cited from earlier work
T1 construct: host or cells: X. laevis oocytes
T1 sequence (P35384 20-1085): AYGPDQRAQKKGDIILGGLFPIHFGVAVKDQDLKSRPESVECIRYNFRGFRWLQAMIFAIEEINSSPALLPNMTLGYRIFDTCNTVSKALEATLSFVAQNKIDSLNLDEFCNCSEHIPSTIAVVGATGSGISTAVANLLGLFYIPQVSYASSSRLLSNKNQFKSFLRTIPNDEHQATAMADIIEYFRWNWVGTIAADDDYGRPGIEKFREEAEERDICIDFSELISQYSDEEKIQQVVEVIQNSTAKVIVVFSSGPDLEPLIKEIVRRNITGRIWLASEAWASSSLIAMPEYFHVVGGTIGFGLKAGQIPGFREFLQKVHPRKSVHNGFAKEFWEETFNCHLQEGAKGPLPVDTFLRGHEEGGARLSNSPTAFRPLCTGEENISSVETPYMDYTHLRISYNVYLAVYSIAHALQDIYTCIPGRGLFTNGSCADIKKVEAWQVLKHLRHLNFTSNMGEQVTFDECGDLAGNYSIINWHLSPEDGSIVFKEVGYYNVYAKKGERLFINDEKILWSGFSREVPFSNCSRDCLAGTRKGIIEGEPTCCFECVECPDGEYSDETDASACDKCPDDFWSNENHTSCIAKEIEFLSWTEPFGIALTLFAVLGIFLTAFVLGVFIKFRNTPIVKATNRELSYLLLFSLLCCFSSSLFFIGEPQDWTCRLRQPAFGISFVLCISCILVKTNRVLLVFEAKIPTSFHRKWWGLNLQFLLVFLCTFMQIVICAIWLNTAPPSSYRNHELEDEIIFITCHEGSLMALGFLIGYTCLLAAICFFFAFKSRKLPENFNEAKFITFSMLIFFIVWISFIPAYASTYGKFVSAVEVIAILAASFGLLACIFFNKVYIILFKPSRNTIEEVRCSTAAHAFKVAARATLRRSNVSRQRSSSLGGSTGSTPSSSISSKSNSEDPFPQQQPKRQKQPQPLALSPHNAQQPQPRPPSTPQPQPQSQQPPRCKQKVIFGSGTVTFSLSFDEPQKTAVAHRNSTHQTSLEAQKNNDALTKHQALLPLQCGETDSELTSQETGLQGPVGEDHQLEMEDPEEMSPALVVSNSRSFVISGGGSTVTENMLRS

rat CaSR = target: T2, rat CaSR (Rattus norvegicus, UniProt P48442); conditions: CHO cells; cited from earlier work
T2 construct: host or cells: CHO cells, transient
T2 sequence (P48442 20-1079): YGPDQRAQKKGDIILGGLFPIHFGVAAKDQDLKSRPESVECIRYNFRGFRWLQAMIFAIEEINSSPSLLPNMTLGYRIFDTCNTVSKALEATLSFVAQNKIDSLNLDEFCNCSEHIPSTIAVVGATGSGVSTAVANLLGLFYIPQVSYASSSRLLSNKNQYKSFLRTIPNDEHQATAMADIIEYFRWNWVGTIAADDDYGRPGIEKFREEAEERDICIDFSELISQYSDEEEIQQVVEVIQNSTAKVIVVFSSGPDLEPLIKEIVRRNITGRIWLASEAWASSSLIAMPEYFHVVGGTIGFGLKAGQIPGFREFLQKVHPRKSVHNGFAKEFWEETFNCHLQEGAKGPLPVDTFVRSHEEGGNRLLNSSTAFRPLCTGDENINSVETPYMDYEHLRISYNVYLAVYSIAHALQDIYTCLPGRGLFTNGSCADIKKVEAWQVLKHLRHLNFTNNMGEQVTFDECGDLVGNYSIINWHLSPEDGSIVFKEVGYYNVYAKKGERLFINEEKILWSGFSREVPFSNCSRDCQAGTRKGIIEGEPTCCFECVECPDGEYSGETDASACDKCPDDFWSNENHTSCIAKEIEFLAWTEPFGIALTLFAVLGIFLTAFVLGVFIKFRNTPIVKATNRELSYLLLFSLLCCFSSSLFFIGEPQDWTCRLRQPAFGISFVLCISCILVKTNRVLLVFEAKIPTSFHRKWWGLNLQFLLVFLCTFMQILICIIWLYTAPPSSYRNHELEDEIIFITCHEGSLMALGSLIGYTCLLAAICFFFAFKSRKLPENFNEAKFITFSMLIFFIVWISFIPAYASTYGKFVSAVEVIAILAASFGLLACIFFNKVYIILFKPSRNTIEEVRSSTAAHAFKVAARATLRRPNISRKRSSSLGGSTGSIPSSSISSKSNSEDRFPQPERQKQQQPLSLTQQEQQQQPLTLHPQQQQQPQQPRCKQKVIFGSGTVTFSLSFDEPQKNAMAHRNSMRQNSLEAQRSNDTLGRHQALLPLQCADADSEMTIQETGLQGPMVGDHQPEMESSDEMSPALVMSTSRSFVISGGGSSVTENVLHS

CaSR [2] = target: T3, CaSR (Homo sapiens, UniProt P41180); parameters: host or cells: HEK cells, transient; conditions: HEK cells, in the presence of 150 mM NaCl; read-out: EC50 for intracellular calcium responses; cited from earlier work
T3 sequence (P41180 20-1078): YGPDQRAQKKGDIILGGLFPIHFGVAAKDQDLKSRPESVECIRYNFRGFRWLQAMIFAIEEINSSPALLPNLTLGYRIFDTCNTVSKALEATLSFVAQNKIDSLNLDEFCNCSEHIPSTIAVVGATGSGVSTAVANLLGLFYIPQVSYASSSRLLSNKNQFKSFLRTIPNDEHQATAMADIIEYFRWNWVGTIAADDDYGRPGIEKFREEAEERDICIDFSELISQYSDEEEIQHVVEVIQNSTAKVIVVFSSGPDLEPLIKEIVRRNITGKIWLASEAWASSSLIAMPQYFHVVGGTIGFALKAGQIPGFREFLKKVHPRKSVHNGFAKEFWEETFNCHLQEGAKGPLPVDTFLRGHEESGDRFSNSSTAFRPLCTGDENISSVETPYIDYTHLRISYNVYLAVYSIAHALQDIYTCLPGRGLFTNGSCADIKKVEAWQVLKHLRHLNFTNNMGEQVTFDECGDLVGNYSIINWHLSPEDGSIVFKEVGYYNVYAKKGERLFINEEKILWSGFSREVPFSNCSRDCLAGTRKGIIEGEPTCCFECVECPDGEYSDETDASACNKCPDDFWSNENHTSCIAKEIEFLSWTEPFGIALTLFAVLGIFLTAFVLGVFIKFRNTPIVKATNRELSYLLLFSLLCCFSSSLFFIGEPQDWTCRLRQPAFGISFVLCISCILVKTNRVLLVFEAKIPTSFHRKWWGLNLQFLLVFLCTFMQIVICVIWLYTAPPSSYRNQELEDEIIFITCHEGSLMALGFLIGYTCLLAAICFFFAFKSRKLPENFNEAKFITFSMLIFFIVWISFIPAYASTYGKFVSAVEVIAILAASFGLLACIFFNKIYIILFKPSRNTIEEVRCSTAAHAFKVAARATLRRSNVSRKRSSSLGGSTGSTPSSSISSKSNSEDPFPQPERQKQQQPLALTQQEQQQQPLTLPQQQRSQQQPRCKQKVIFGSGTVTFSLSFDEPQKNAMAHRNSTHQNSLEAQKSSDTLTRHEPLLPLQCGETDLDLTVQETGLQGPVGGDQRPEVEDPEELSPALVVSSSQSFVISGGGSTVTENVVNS

## [Mg+2] [Mg^2+, magnesium]
CaSR [1]
  pEC50: 2.00
Rat CaSR
  EC50 relative to that of Ca^2+: about twice
CaSR [2]
  pEC50: 1.70 to 1.82
